Patent US10208021B2, “Substituted tetrahydroisoquinoline compounds as factor XIa inhibitors” (BRISTOL-MYERS SQUIBB COMPANY, priority 2011, dated 2019)
Counter-ions that a name gives are not always drawn.

Molecular target: purified human Factor XIa (Homo sapiens (Human), UniProt P03951)
Test: Factor XIa chromogenic substrate (S-2366) inhibition assay
Assay type: biochemical
In short: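 Ki derived from reaction velocities measured in the presence of inhibitor. Purified protease hydrolysed the chromogenic substrate; rate of absorbance change was followed over 20-180 minutes, depending on the protease.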

[1] = substrate S-2366, activity ranges, Table A

Sequence of purified human Factor XIa (P03951 388-625): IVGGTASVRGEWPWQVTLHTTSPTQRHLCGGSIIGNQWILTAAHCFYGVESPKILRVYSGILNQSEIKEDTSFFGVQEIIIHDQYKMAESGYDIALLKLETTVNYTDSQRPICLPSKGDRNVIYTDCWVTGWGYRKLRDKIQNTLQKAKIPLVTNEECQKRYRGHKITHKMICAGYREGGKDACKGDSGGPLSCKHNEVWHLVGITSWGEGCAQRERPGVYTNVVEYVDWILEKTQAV
Sequence of purified human Factor XIa (P03951 19-387 partner): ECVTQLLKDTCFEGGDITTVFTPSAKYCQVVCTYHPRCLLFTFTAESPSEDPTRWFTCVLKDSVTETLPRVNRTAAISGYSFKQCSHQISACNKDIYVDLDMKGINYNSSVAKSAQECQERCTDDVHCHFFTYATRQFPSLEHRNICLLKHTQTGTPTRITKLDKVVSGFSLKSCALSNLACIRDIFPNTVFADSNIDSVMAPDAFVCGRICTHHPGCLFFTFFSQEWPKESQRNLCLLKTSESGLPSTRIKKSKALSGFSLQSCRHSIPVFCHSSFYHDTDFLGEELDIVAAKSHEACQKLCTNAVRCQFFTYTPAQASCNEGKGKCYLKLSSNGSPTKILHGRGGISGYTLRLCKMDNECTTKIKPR

Structure (SMILES)	Ki [1] [nM]	Ki (substrate S-2366, Table 1) [nM]
COC(=O)[C@H]1CC[C@@H](NC(=O)C2c3cccc(N4CCC(N5CCCC5)CC4)c3CCN2C(=O)/C=C/c2c(-n3cnnn3)ccc(Cl)c2F)CC1 (mixture of isomers) [Example 233]	5 to 10	–
Cn1ncc2cc(NC(=O)C3c4cccc(N5CCC(N6CCCC6)CC5)c4CCN3C(=O)/C=C/c3c(-n4cnnn4)ccc(Cl)c3F)ccc21 (racemic) [Example 127]	< 5	–
CC(=O)c1ccc(Cl)c(F)c1C=CC(=O)N1CCc2c(cccc2N2CCC(OCCN(C)C)CC2)C1C(=O)Nc1ccc(C(=O)O)cc1 (stereo not drawn) [Example 267]	< 5	–
COC(=O)N[C@H]1CC[C@H](NC(=O)C2c3cccc(N4CCC(N5CCCC5)CC4)c3CCN2C(=O)/C=C/c2c(-n3cnnn3)ccc(Cl)c2F)CC1 (mixture of isomers) [Example 238]	5 to 10	–
CC1(C)Cc2c(cccc2N2CCNCC2)[C@@H](C(=O)Nc2ccc(C(=O)O)cc2)N1C(=O)/C=C/c1c(-n2cnnn2)ccc(Cl)c1F [Example 194, (S,E)-4-(2-(3-(3-Chloro-2-fluoro-6-(1H-tetrazol-1-yl)phenyl)acryloyl)-3,3-dimethyl-5-(piperazin-1-yl)-1,2,3,4-tetrahydroisoquinoline-1-carboxamido) benzoic acid, bis-TFA salt]	< 5	–
COC(=O)Nc1ccc(NC(=O)C2c3cccc(N4CCC(N5CCCC5)CC4)c3CCN2C(=O)C=Cc2c(-n3cnnn3)ccc(Cl)c2F)cc1 (stereo not drawn) [Example 99]	< 5	–
COC(=O)[C@H]1CC[C@H](NC(=O)C2c3cccc(N4CCC(N5CCCC5)CC4)c3CCN2C(=O)/C=C/c2c(-n3cnnn3)ccc(Cl)c2F)CC1 (mixture of isomers) [Example 232]	5 to 10	–
O=C(O)c1ccc(NC(=O)C2c3cccc(N4CCC(N5CCCC5)CC4)c3CCN2C(=O)/C=C/c2cc(Cl)ccc2C(F)F)cc1 (racemic) [Example 158]	< 5	–
CN1CCN(c2cccc3c2CC(C)(C)N(C(=O)/C=C/c2c(-n4cnnn4)ccc(Cl)c2F)[C@H]3C(=O)Nc2ccc(C(=O)O)cc2)CC1 [Example 202]	100 to 500	–
O=C(O)c1ccc(NC(=O)C2c3cccc(N4CCC(N5CCCC5)CC4)c3CCN2C(=O)/C=C/c2c(O)ccc(Cl)c2F)cc1 (racemic) [Example 162]	< 5	–
COC(=O)Nc1ccc(NC(=O)C2c3cccc(N4CCC(N5CCCC5)CC4)c3CCN2C(=O)C=Cc2c(-n3cnnn3)ccc(Cl)c2F)cc1 (stereo not drawn) [Example 98]	–	632
CC(=O)c1ccc(Cl)c(F)c1C=CC(=O)N1CCc2c(cccc2N2CCC(N3CCCC3)CC2)C1C(=O)Nc1ccc(C(=O)O)cc1 (stereo not drawn) [Example 168]	< 5	–
O=C(O)c1ccc(NC(=O)C2c3cccc(N4CCC(N5CCCC5)CC4)c3CCN2C(=O)/C=C/c2cc(Cl)ccc2OC(F)F)cc1 (racemic) [Example 159]	< 5	–
CCOC(=O)c1ccc(NC(=O)[C@@H]2c3cccc(N4CCN(C)CC4)c3CC(C)(C)N2C(=O)/C=C/c2c(-n3cnnn3)ccc(Cl)c2F)cc1 [Example 203]	5 to 10	–
CC1(C)Cc2c(cccc2N2CCOCC2)[C@H](C(=O)Nc2ccc(C(=O)O)cc2)N1C(=O)/C=C/c1c(-n2cnnn2)ccc(Cl)c1F [Example 200]	100 to 500	–
O=C(Nc1ccc2cn[nH]c2c1)C1c2cccc(N3CCNCC3)c2CCN1C(=O)/C=C/c1c(-n2cnnn2)ccc(Cl)c1F (stereo not drawn) [Example 11]	< 5	–
O=C(OC1CCCC1)c1ccc(NC(=O)C2c3cccc(N4CCC(N5CCCC5)CC4)c3CCN2C(=O)/C=C/c2c(-n3cnnn3)ccc(Cl)c2F)cc1 (racemic) [Example 124]	< 5	–
O=C(O)c1ccc(NC(=O)C2c3cccc(N4CCN(C(=O)OCc5ccccc5)CC4=O)c3CCN2C(=O)/C=C/c2c(-n3cnnn3)ccc(Cl)c2F)cc1 (racemic) [Example 52]	–	< 5
CC(=O)c1ccc(Cl)c(F)c1C=CC(=O)N1CCc2c(cccc2N2CCC(N3CCCC3)CC2)C1C(=O)Nc1ccc(C(=O)O)cc1 (stereo not drawn) [Example 167]	5 to 10	–
NC(=O)CCNC(=O)c1ccc(NC(=O)C2c3cccc(N4CCNCC4)c3CCN2C(=O)/C=C/c2cc(Cl)c(F)cc2-n2cnnn2)cc1 (racemic) [Example 73]	500 to 5000	–
O=C(O)c1ccc(NC(=O)C2c3cccc(N4CCC5(CC4)OCCO5)c3CCN2C(=O)/C=C/c2c(-n3cnnn3)ccc(Cl)c2F)cc1F (racemic) [Example 255]	< 5	–
N#Cc1ccc(Cl)c(F)c1C=CC(=O)N1CCc2c(cccc2N2CCC(N3CCCC3)CC2)C1C(=O)Nc1ccc(C(=O)O)cc1 (stereo not drawn) [Example 163]	5 to 10	–
O=C(N[C@H]1CC[C@H](C(=O)O)CC1)C1c2cccc(N3CCC(N4CCCC4)CC3)c2CCN1C(=O)/C=C/c1c(-n2cnnn2)ccc(Cl)c1F (mixture of isomers) [Example 234]	5 to 10	–

Now from value to molecule:

Ki [1] [nM]	Ki (substrate S-2366, Table 1) [nM]	Structure (SMILES)
5 to 10	–	CCOC(=O)c1ccc(NC(=O)C2c3cccc(N4CCOCC4)c3CCN2C(=O)C=Cc2c(-n3cnnn3)ccc(Cl)c2F)cc1 (stereo not drawn) [Example 185]
< 5	–	CCCCOC(=O)c1ccc(NC(=O)C2c3cccc(N4CCC(N5CCCC5)CC4)c3CCN2C(=O)/C=C/c2c(-n3cnnn3)ccc(Cl)c2F)cc1 (racemic) [Example 105]
< 5	–	N#Cc1ccc(NC(=O)C2c3cccc(N4CCC(N5CCCC5)CC4)c3CCN2C(=O)/C=C/c2c(-n3cnnn3)ccc(Cl)c2F)cc1 (racemic) [Example 85]
5 to 10	–	CCOC(=O)c1ccc(NC(=O)C2c3cccc(N4CCN(C)CC4)c3CCN2C(=O)C=Cc2c(-n3cnnn3)ccc(Cl)c2F)cc1 (stereo not drawn) [compound 29]
–	314	O=C(Nc1ccc(F)cc1)C1c2cccc(N3CCC(N4CCCC4)CC3)c2CCN1C(=O)C=Cc1c(-n2cnnn2)ccc(Cl)c1F (stereo not drawn) [Example 90]
–	< 5	CCOC(=O)c1ccc(NC(=O)C2c3cccc(N4CCC(N5CCCC5)CC4)c3CCN2C(=O)C=Cc2c(-n3cnnn3)ccc(Cl)c2F)cc1 (stereo not drawn) [Example 94]
< 5	–	O=C(O)c1ccc(NC(=O)C2c3cccc(N4CCNCC4)c3CCN2C(=O)/C=C/c2c(-n3cnnn3)ccc(Cl)c2F)cc1 (stereo not drawn) [Example 3]
< 5	–	O=C(O)c1ccc(NC(=O)[C@@H]2c3cccc(N4CCC(N5CCOCC5)CC4)c3CCN2C(=O)/C=C/c2c(-n3cnnn3)ccc(Cl)c2F)cc1 [Example 139]
< 5	–	N#CC1CCN(c2cccc3c2CCN(C(=O)/C=C/c2c(-n4cnnn4)ccc(Cl)c2F)C3C(=O)Nc2ccc(C(=O)O)cc2)CC1 (racemic) [Example 147]
< 5	–	CC1(O)CCN(c2cccc3c2CCN(C(=O)C=Cc2c(-n4cnnn4)ccc(Cl)c2F)C3C(=O)Nc2ccc(C(=O)O)cc2)CC1 (stereo not drawn) [Example 268]
< 5	–	CCOC(=O)c1ccc(NC(=O)C2c3cccc(N4CCC(C(=O)N5CCCC5)CC4)c3CCN2C(=O)/C=C/c2c(-n3cnnn3)ccc(Cl)c2F)cc1 (racemic) [Example 134]
5 to 10	–	CCOC(=O)c1ccc(NC(=O)C2c3cccc(N4CCS(=O)(=O)CC4)c3CCN2C(=O)/C=C/c2c(-n3cnnn3)ccc(Cl)c2F)cc1 (racemic) [Example 226]
< 5	–	CC(C)OC(=O)c1ccc(NC(=O)C2c3cccc(N4CCC(N5CCCC5)CC4)c3CCN2C(=O)/C=C/c2c(-n3cnnn3)ccc(Cl)c2F)cc1 (racemic) [Example 122]
< 5	–	O=C(O)c1ccc(NC(=O)C2c3cccc(N4CCC(N5CCCCC5)CC4)c3CCN2C(=O)/C=C/c2c(-n3cnnn3)ccc(Cl)c2F)cc1 (racemic) [Example 115]
< 5	–	CN(C)[C@H]1CCN(c2cccc3c2CCN(C(=O)/C=C/c2c(-n4cnnn4)ccc(Cl)c2F)[C@H]3C(=O)Nc2ccc(C(=O)O)cc2)C1 [Example 208, 4-((R)-2-((E)-3-(3-Chloro-2-fluoro-6-(1H-tetrazol-1-yl)phenyl)acryloyl)-5-((S)-3-(dimethylamino)pyrrolidin-1-yl)-1,2,3,4-tetrahydroisoquinoline-1-carboxamido)benzoic acid, bis-TFA salt]
–	< 5	O=C(O)c1ccc(NC(=O)C2c3cccc(N4CCC(C(=O)N5CCCC5)CC4)c3CCN2C(=O)/C=C/c2c(-n3cnnn3)ccc(Cl)c2F)cc1 (racemic) [Example 131]
